Assay results published in the supplement of paper PMC10307832.

Compound: O=C(O)c1ccc2c(c1)nc(Nc1cccc(Cl)c1)c1ccncc12 [Silmitasertib] + O=C(CCCCCCC(=O)Nc1ccccc1)NO [Vorinostat] (partner 1 µM)
Assay: relative viability (nuclei count vs DMSO), 5 days (fraction); higher = more cells survive
Summary of the method: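 Medians of duplicate plates are given as relative viability. That measure is the nuclei count in treated wells divided by the count in vehicle wells. Counts were taken on 4× images of lung cancer cell lines in 1536-well plates, 5 days after pin-tool dosing the day after seeding with one drug alone or a fixed anchor-drug dose plus five library-drug doses (not always all listed) in √10 steps.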

| Cell Line | relative viability (first compound 0.04 µM) | relative viability (first compound 0.4 µM) | relative viability (first compound 1.265 µM) | relative viability (first compound 4 µM) |
| --- | --- | --- | --- | --- |
| 201T | 1.09 | 0.949 | 1.02 | 0.837 |
| A-427 | 0.87 | 0.761 | 0.954 | 0.568 |
| ABC-1 | 1.22 | 0.733 | 0.642 | 0.553 |
| BEN | 0.648 | 0.475 | 0.456 | 0.545 |
| CAL-12T | 0.891 | 0.876 | 0.746 | 0.525 |
| COR-L23 | 0.62 | 0.378 | 0.525 | 0.401 |
| COR-L 105 | 0.843 | 0.901 | 0.688 | 0.663 |
| ChaGo-K-1 | 0.786 | 0.574 | 0.62 | 0.539 |
| EKVX | 0.951 | 0.464 | 0.541 | 0.584 |
| EMC-BAC-2 | 0.595 | 0.455 | 0.287 | 0.169 |
| EPLC-272H | 0.454 | 0.685 | 0.391 | 0.13 |
| H3255 | 0.747 | 0.772 | 0.868 | 0.645 |
| HARA | 0.627 | 0.301 | 0.464 | 0.416 |
| HCC-15 | 1.02 | 0.699 | 0.579 | 0.671 |
| HCC-44 | 1.06 | 0.903 | 1.24 | 1.16 |
| HCC-78 | 0.459 | 0.421 | 0.402 | 0.437 |
| HCC-366 | 0.396 | 0.221 | 0.413 | 0.0566 |
| HCC-827 | 0.861 |  | 0.241 | 0.555 |
| HOP-62 | 0.779 |  | 0.584 | 0.388 |
| IA-LM | 1.05 |  | 1.21 | 0.538 |
| LC-2-ad | 0.712 | 0.573 | 0.753 | 0.3 |
| LCLC-97TM1 | 0.605 |  | 0.654 | 0.119 |
| LCLC-103H | 0.823 | 0.693 | 0.774 | 0.428 |
| LK-2 | 0.296 |  | 0.404 | 0.18 |

| Cell Line | relative viability (first compound 0.04 µM) | relative viability (first compound 0.4 µM) | relative viability (first compound 1.265 µM) | relative viability (first compound 4 µM) |
| --- | --- | --- | --- | --- |
| LOU-NH91 | 1.06 | 0.874 | 0.784 | 0.514 |
| LU99A | 0.519 | 0.546 | 0.482 | 0.374 |
| LXF-289 | 0.751 |  | 0.747 | 0.862 |
| NCI-H23 | 0.6 | 0.281 | 0.545 | 0.165 |
| NCI-H322M | 0.994 | 0.936 | 0.968 | 0.653 |
| NCI-H358 | 0.774 | 0.652 | 0.677 | 0.692 |
| NCI-H441 | 0.935 |  | 0.822 | 0.843 |
| NCI-H460 | 0.722 | 0.747 | 0.668 | 0.842 |
| NCI-H520 | 0.773 | 0.907 | 0.912 | 0.802 |
| NCI-H522 | 0.99 | 0.715 | 0.929 | 0.863 |
| NCI-H596 | 0.768 | 0.616 | 0.611 | 0.375 |
| NCI-H647 | 0.868 | 0.666 | 0.672 | 0.704 |
| NCI-H650 | 0.626 | 0.281 | 0.475 | 0.244 |
| NCI-H661 | 0.812 | 0.847 | 0.737 | 0.631 |
| NCI-H727 | 1.36 | 0.822 | 0.83 | 1.16 |
| NCI-H838 | 0.787 | 0.837 | 0.807 | 0.848 |
| NCI-H1355 | 0.664 |  | 0.622 | 0.499 |
| NCI-H1395 | 0.93 | 0.616 | 0.662 | 0.538 |
| NCI-H1437 | 0.844 | 0.787 | 0.701 | 0.43 |
| NCI-H1650 | 0.577 | 0.386 | 0.421 | 0.288 |
| NCI-H1651 | 0.572 | 0.456 | 0.335 | 0.594 |
| NCI-H1666 | 1.06 | 0.845 | 0.855 | 0.689 |
| NCI-H1734 | 0.849 | 0.705 | 0.874 | 0.582 |
| NCI-H1755 | 0.756 | 0.633 | 0.526 | 0.72 |

| Cell Line | relative viability (first compound 0.04 µM) | relative viability (first compound 0.4 µM) | relative viability (first compound 1.265 µM) | relative viability (first compound 4 µM) |
| --- | --- | --- | --- | --- |
| NCI-H1793 | 0.989 | 0.619 | 0.718 | 0.213 |
| NCI-H1915 | 0.54 |  | 0.519 | 0.413 |
| NCI-H1944 | 0.595 | 0.459 | 0.647 | 0.531 |
| NCI-H1975 | 0.766 |  | 0.687 | 0.69 |
| NCI-H1993 | 0.911 | 0.553 | 0.659 | 0.514 |
| NCI-H2009 | 0.787 | 0.681 | 0.795 | 0.751 |
| NCI-H2023 | 0.839 | 0.268 | 0.63 | 0.374 |
| NCI-H2085 | 0.837 | 0.638 | 0.725 | 0.548 |
| NCI-H2087 | 0.669 | 0.506 | 0.672 | 0.589 |
| NCI-H2126 | 0.863 | 0.607 | 0.693 | 0.406 |
| NCI-H2170 | 0.81 | 0.503 | 0.73 | 0.683 |
| NCI-H2228 | 0.848 | 0.513 | 0.779 | 0.875 |
| NCI-H2347 | 0.565 | 0.502 | 0.565 | 0.479 |
| NCI-H2405 | 1.1 | 0.927 | 0.839 | 0.519 |
| NCI-H3122 | 1.04 | 0.807 | 0.679 | 1.19 |
| PC-3 [JPC-3] | 0.815 | 0.706 | 0.833 | 0.436 |
| PC-14 | 0.893 |  | 0.734 | 0.482 |
| RERF-LC-KJ | 0.768 | 0.517 | 0.463 | 0.371 |
| SK-LU-1 | 0.851 | 0.673 | 0.587 | 0.35 |
| SK-MES-1 | 1.21 | 0.876 | 0.8 | 0.297 |
| SW 900 | 0.585 | 0.403 | 0.446 | 0.172 |
| SW 1573 | 1.17 | 0.661 | 0.908 | 0.577 |
| UMC-11 | 0.388 | 0.522 | 0.439 | 0.333 |
